Laboratory results from patent US12383710B2 (Urotronic, Inc., priority 2019, dated 2025).

Legend:
[1] = BPH Preclinical Study 4: tissue and plasma PK, histology
[2] = stability under ethylene oxide sterilization, heating, and aging with paclitaxel; settings: reacted with paclitaxel

prostate tissue drug concentration, maximum dose arm vs standard dose ([1]; 28 days) [times higher]	prostatic urethra tissue drug concentration, maximum dose arm vs standard dose ([1]; 28 days) [times higher]	prostate tissue drug concentration, maximum dose arm vs standard dose ([1]; 70 days) [times higher]	prostatic urethra tissue drug concentration, maximum dose arm vs standard dose ([1]; 70 days) [times higher]	clinical abnormalities ([1]; all animals, duration of the study)	histology of the prostate ([1]; maximum dose animals, 28 days, slower healing relative to standard dose and control)	abnormalities or complications ([1]; maximum dose treatment arm, 19.6 mg of paclitaxel)	plasma paclitaxel concentration ([1]; maximum dose, 12 hour and later)	nonurethral close proximity tissue sample concentrations ([1]; most samples, 28 days and beyond)	plasma paclitaxel concentration ([1]; standard dose, all time-points (1, 3, 7, 12 hours, 1, 3, 7, 14, 28 days))	Structure (SMILES)	increase of urethral luminal diameter as a result of commissurotomy ([1]; did not change between 7 days and 70 days)	stability under ethylene oxide sterilization, heating, and aging process [2]
4.5	11	23	23	No significant clinical abnormalities	ongoing healing	no abnormalities or complications	BLOQ	at or below the limit of quantification	BLOQ	CC(=O)O[C@H]1C(=O)[C@@]2(C)[C@H]([C@H](OC(=O)c3ccccc3)[C@]3(O)C[C@H](OC(=O)[C@H](O)[C@@H](NC(=O)c4ccccc4)c4ccccc4)C(C)=C1C3(C)C)[C@]1(OC(C)=O)CO[C@@H]1C[C@@H]2O [paclitaxel]	approximately 50%	
										O=C(O)c1ccccc1 [benzoic acid]		not stable
